Source: US20070099259A1, “ELECTROCHEMICAL ASSAY FOR THE IDENTIFICATION OF MICROORGANISMS” (RAPID LABORATORY MICROSYSTEMS INC., priority 2003, published 2007)
Like-named read-outs stand apart in the source and are kept apart here.

Tests used:
E. coli HB101 = test: Relative respiratory activity with 22 effectors (Example 3); type: cell-based
Excerpt: (§1) In this example, each microorganism is subjected to 22 different effector compounds in addition to control measurements. […] For each microorganism, duplicate measurements were made of 22 different effector compounds. In addition, duplicate measurements were made a control test containing no effector compound. One additional measurement was made of a control solution containing the microorganism with ferricyanide but without effector or DCIP.
(§2) In this example, each normalized data set containing duplicate measurements for each of 22 effector compounds is referenced to the duplicate internal controls to allow batch-to-batch comparison. The obtained signals of charge per unit electrode area for the duplicate control measurements are averaged and set at 100% respiratory cycle activity. […] The data set used to generate pattern recognition plots consists of 5 replicate batches (each batch containing duplicate measurements for each of 22 effector compounds) for each cell culture (10 strains). This is used to generate a 50 (columns)×22 (rows) matrix. The matrix is imported into MATLAB (Version 6.0). Factor analysis is performed using the MATLAB Chemometric Toolbox (Version 2.3) and involves the generation of reduced eigenvectors to determine the optimal number of factors, examination of the resulting residuals plots for randomness, and the generation of scores for the first four principle components.

E. coli B = test: as above; type: cell-based; conditions: for activity at 10000 µM: effector 10 mM, read-out: relative %-respiratory activity
Excerpt: as §1, §2

E. coli Neotype = test: as above; type: cell-based; conditions: for activity at 10000 µM: read-out: relative %-respiratory activity
Excerpt: as §1, §2

E. coli JM105 = test: as above; type: cell-based
Excerpt: as §1, §2

S. cerevisiae = test: as above; type: cell-based, Saccharomyces cerevisiae; conditions: for activity at 10000 µM: read-out: relative %-respiratory activity
Excerpt: as §1, §2

P. vulgaris ATCC6380 = test: as above; type: cell-based, Proteus vulgaris
Excerpt: as §1, §2

E. aerogenes ATCC13048e = test: as above; type: cell-based, Enterobacter aerogenes; conditions: for activity at 10000 µM: read-out: relative %-respiratory activity
Excerpt: as §1, §2

P. aeruginosa = test: as above; type: cell-based, Pseudomonas aeruginosa; conditions: for activity at 10000 µM: read-out: relative %-respiratory activity
Excerpt: as §1, §2

S. aureus ATCC6538P = test: as above; type: cell-based, Staphylococcus aureus; conditions: for activity at 10000 µM: read-out: relative %-respiratory activity
Excerpt: as §1, §2

E. faecalis [1] = test: as above; type: cell-based, Enterococcus faecalis; conditions: for activity at 10000 µM: read-out: relative %-respiratory activity
Excerpt: as §1, §2

Gram-positive bacteria = conditions: effector 1 mM instead of 1 mM glucose, relative to + DCIP
Method: The following steps are used for each test: (1) preheating for a fixed time (4 min) and a fixed temperature (35° C.) a 150 μL aliquot of buffer containing 1 mM glucose (glc) with or without 5 μM DCIP; (2) this is followed by the addition of 50 μL of the bacterial suspension to the sample for a fixed time (10 min) and at a fixed temperature (35° C.); (3) this is followed by the addition of the mediator (50 μL of 0.4 M potassium ferricyanide) for a fixed time (10 min) and at a fixed temperature (35° C.); and (4) measurement of current at a fixed voltage difference (100 mV) between two platinum electrodes for a fixed time (120 sec) at a fixed temperature (35° C.). The final ferricyanide concentration in the sample prior to reaction with the microorganism is 40 mM.
In this configuration the assay uses two platinum electrodes each having a surface area of approximately 0.03 cm^2. The measured current depends on the concentration of the least-concentrated species of the redox-couple in solution. […] The magnitude of the measured current indicates the quantity of the reduced mediator present in the assay solution. The measured current is integrated over time to produce a plot of total charge against time. The change in total charge is measured between 30 and 120 seconds after the potential is applied. […]

E. faecalis [2] = test: Respiration assay (Example 1), electrochemical ferricyanide/DCIP mediator consumption; type: cell-based, Enterococcus faecalis; conditions: n=2
Method: (§3) The ferricyanide solution is added so that the final ferricyanide concentrations is 50 mM.
(§4) The bacterial suspensions were adjusted to a MacFarland Standard of 5.0 (5.0×10sup.8 cfu/mL) or an optical density of 1.2 measured at 625 nm and cell growth was stopped by cooling the bacterial suspension for a minimum of 15 min in an ice-bath.

[3] = system: Staphylococcus aureus ATCC 6538P; test: as above; type: cell-based; conditions: n=2
Method: as §3, §4

[4] = effector 3 mM, 5 μM DCIP, no effector = 100%, n = 18
[5] = effector 3 mM, 5 μM DCIP, no effector = 100%, n = 26
[6] = effector 3 mM, 5 μM DCIP, no effector = 100%, n = 10
[7] = effector 3 mM, 5 μM DCIP, no effector = 100%, n = 20
[8] = Escherichia coli, 5 μM DCIP, no effector = 100%, n = 10

Work on `O=C(O)CCC(=O)O` [Succinate] yielded a relative %-respiratory activity (E. coli HB101; [4]) of 172%, a relative %-respiratory activity (E. coli B) of 134% and a relative %-respiratory activity (E. coli Neotype; [5]) of 127%. The relative %-respiratory activity (E. coli JM105; [6]) was 287%, the relative %-respiratory activity (S. cerevisiae; [6]) was 108% and the relative %-respiratory activity (P. vulgaris ATCC6380; [7]) was 520%. For the same molecule, the relative %-respiratory activity (E. aerogenes ATCC13048e; [5]) was 187%, the relative %-respiratory activity (P. aeruginosa; [4]) was 102% and the relative %-respiratory activity (S. aureus ATCC6538P; [7]) was 167%. The relative %-respiratory activity (E. faecalis [1]; [7]) was 87% and the “respiratory signals in the absence of 5 μM DCIP” value (Gram-positive bacteria) was under 80%.
In the case of `OC[C@H]1O[C@@H]2O[C@H]3[C@H](O)[C@@H](O)[C@@H](O[C@H]4[C@H](O)[C@@H](O)[C@@H](O[C@H]5[C@H](O)[C@@H](O)[C@@H](O[C@H]6[C@H](O)[C@@H](O)[C@@H](O[C@H]7[C@H](O)[C@@H](O)[C@@H](O[C@H]8[C@H](O)[C@@H](O)[C@@H](O[C@H]1[C@H](O)[C@H]2O)O[C@@H]8CO)O[C@@H]7CO)O[C@@H]6CO)O[C@@H]5CO)O[C@@H]4CO)O[C@@H]3CO` [Beta-cyclodextrin], the activity at 10000 µM (E. coli HB101; Escherichia coli, HB101, effector 10 mM, 5 μM DCIP, no effector = 100%, n = 18, read-out: relative %-respiratory activity) is reported as 132%, the activity at 10000 µM (E. coli B; [8]) is reported as 125% and the activity at 10000 µM (E. coli Neotype; Escherichia coli, effector 10 mM, 5 μM DCIP, no effector = 100%, n = 26) is reported as 81%. For the same molecule, the activity at 10000 µM (E. coli JM105; Escherichia coli, JM105, effector 10 mM, 5 μM DCIP, no effector = 100%, n = 10, read-out: relative %-respiratory activity) was 187%, the activity at 10000 µM (S. cerevisiae; Saccharomyces cerevisiae, effector 10 mM, 5 μM DCIP, no effector = 100%, n = 10) was 112% and the activity at 10000 µM (P. vulgaris ATCC6380; Proteus vulgaris, ATCC6380, effector 10 mM, 5 μM DCIP, no effector = 100%, n = 20, read-out: relative %-respiratory activity) was 151%. It also gave an activity at 10000 µM (E. aerogenes ATCC13048e; Klebsiella aerogenes, ATCC13048E, effector 10 mM, 5 μM DCIP, no effector = 100%, n = 26) of 110%, an activity at 10000 µM (P. aeruginosa; Pseudomonas aeruginosa, effector 10 mM, 5 μM DCIP, no effector = 100%, n = 18) of 90% and an activity at 10000 µM (S. aureus ATCC6538P; Staphylococcus aureus, ATCC6538P, effector 10 mM, 5 μM DCIP, no effector = 100%, n = 20) of 98%. It also gave an activity at 10000 µM (E. faecalis [1]; Enterococcus faecalis, effector 10 mM, 5 μM DCIP, no effector = 100%, n = 20) of 155%.
For `NCCC[C@H](N)C(=O)O` [L-ornithine], the activity at 5000 µM (E. coli HB101; Escherichia coli, HB101, effector 5 mM, 5 μM DCIP, no effector = 100%, n = 18) was 114%, the activity at 5000 µM (E. coli B; Escherichia coli, effector 5 mM, 5 μM DCIP, no effector = 100%, n = 10) was 135% and the activity at 5000 µM (E. coli Neotype; Escherichia coli, effector 5 mM, 5 μM DCIP, no effector = 100%, n = 26) was 134%. It also gave an activity at 5000 µM (E. coli JM105; Escherichia coli, JM105, effector 5 mM, 5 μM DCIP, no effector = 100%, n = 10) of 165%, an activity at 5000 µM (S. cerevisiae; Saccharomyces cerevisiae, effector 5 mM, 5 μM DCIP, no effector = 100%, n = 10) of 137% and an activity at 5000 µM (P. vulgaris ATCC6380; Proteus vulgaris, ATCC6380, effector 5 mM, 5 μM DCIP, no effector = 100%, n = 20) of 151%. The activity at 5000 µM (E. aerogenes ATCC13048e; Klebsiella aerogenes, ATCC13048E, effector 5 mM, 5 μM DCIP, no effector = 100%, n = 26) was 142%, the activity at 5000 µM (P. aeruginosa; Pseudomonas aeruginosa, effector 5 mM, 5 μM DCIP, no effector = 100%, n = 18) was 148% and the activity at 5000 µM (S. aureus ATCC6538P; Staphylococcus aureus, ATCC6538P, effector 5 mM, 5 μM DCIP, no effector = 100%, n = 20) was 154%. It also gave an activity at 5000 µM (E. faecalis [1]; Enterococcus faecalis, effector 5 mM, 5 μM DCIP, no effector = 100%, n = 20) of 138%.
In the case of `O=C[C@@H](O)[C@@H](O)[C@H](O)[C@H](O)CO` [D-mannose], the Slope data (E. faecalis [2]; substrate 1 mM) is reported as 17.8 μC/min, the Slope data (E. faecalis [2]; substrate 10 mM) is reported as 19.6 μC/min and the Slope data (E. faecalis [2]; substrate 50 mM) is reported as 14.5 μC/min. It also gave an activity at 20000 µM (E. coli HB101; Escherichia coli, HB101, effector 20 mM, 5 μM DCIP, no effector = 100%, n = 18) of 222%, an activity at 20000 µM (E. coli B; Escherichia coli, effector 20 mM, 5 μM DCIP, no effector = 100%, n = 10) of 152% and an activity at 20000 µM (E. coli Neotype; Escherichia coli, effector 20 mM, 5 μM DCIP, no effector = 100%, n = 26) of 139%. It also gave an activity at 20000 µM (E. coli JM105; Escherichia coli, JM105, effector 20 mM, 5 μM DCIP, no effector = 100%, n = 10) of 212%, an activity at 20000 µM (S. cerevisiae; Saccharomyces cerevisiae, effector 20 mM, 5 μM DCIP, no effector = 100%, n = 10) of 125% and an activity at 20000 µM (P. vulgaris ATCC6380; Proteus vulgaris, ATCC6380, effector 20 mM, 5 μM DCIP, no effector = 100%, n = 20) of 250%. It also gave an activity at 20000 µM (E. aerogenes ATCC13048e; Klebsiella aerogenes, ATCC13048E, effector 20 mM, 5 μM DCIP, no effector = 100%, n = 26) of 296%, a Slope data ([3]; substrate 1 mM) of 16.6 μC/min and a Slope data ([3]; substrate 10 mM) of 14.0 μC/min. For the same molecule, the Slope data ([3]; substrate 50 mM) was 15.1 μC/min, the activity at 20000 µM (P. aeruginosa; Pseudomonas aeruginosa, effector 20 mM, 5 μM DCIP, no effector = 100%, n = 18) was 108% and the activity at 20000 µM (S. aureus ATCC6538P; Staphylococcus aureus, ATCC6538P, effector 20 mM, 5 μM DCIP, no effector = 100%, n = 20) was 262%. For the same molecule, the activity at 20000 µM (E. faecalis [1]; Enterococcus faecalis, effector 20 mM, 5 μM DCIP, no effector = 100%, n = 20) was 654% and the “respiratory signals in the absence of 5 μM DCIP” value (Gram-positive bacteria) was “below 60%”.
`N[C@@H](Cc1c[nH]c2ccccc12)C(=O)O` [L-tryptophan] gave an activity at 10000 µM (E. coli HB101; Escherichia coli, HB101, read-out: relative %-respiratory activity) of 129%, an activity at 10000 µM (E. coli B; [8]) of 98% and an activity at 10000 µM (E. coli Neotype; Escherichia coli) of 93%. For the same molecule, the activity at 10000 µM (E. coli JM105; Escherichia coli, JM105, read-out: relative %-respiratory activity) was 133%, the activity at 10000 µM (S. cerevisiae; Saccharomyces cerevisiae) was 188% and the activity at 10000 µM (P. vulgaris ATCC6380; Proteus vulgaris, ATCC6380, read-out: relative %-respiratory activity) was 521%. For the same molecule, the activity at 10000 µM (E. aerogenes ATCC13048e; Klebsiella aerogenes, ATCC13048E) was 126%, the activity at 10000 µM (P. aeruginosa; Pseudomonas aeruginosa) was 170% and the activity at 10000 µM (S. aureus ATCC6538P; Staphylococcus aureus, ATCC6538P) was 139%. For the same molecule, the activity at 10000 µM (E. faecalis [1]; Enterococcus faecalis) was 232%.
